Data set [1] has as its system animal models of acute inflammation / severe sepsis. The note with it: cited from earlier work.
Data set [2] concerns patients with high-risk cardiovascular disease. The note with it: selected groups of patients with high-risk cardiovascular disease; ref [55], [56]; cited from earlier work.
The test system of data set [3] is human monocyte-derived macrophages. The note with it: ref [29]; cited from earlier work.
The subject of data set [4] is LPS-stimulated isolated human neutrophils. The note with it: 50 % donor plasma, 40 μg/ml.
The test system of the next data set is leukocytes. The conditions noted are these: ref [24]; cited from earlier work.
The test system of data set [5] is LPS-stimulated whole human blood. The note with it: 40 μg/ml, LPS 1 μg/ml, 3 h at 37 °C.
For data set [6], the system named is LPS-stimulated isolated human neutrophils.
Data set [7] deals with lipopolysaccharide-binding protein (LBP). The conditions noted are these: ref [21]; cited from earlier work.
For data set [8] the following is noted: compared with human apoA-I; ref [37]; cited from earlier work.
In the next data set the test system is paraoxonase 1. The conditions noted are these: ref [20], [41]; cited from earlier work.
Data set [9] has as its system IL-8-stimulated human neutrophils.
The test system of data set [10] is human neutrophils stimulated by septic patient serum. The conditions noted are these: ref [24], cited from earlier work.
Data set [11] concerns LPS-stimulated isolated human leukocytes. The conditions noted are these: 40 μg/ml, LPS 1 μg/ml, n=3.
For data set [12] the following is noted: ref [21], [48]; cited from earlier work.
For data set [13] the following is noted: statement in the discussion, no reference given; cited from earlier work.
The test system of another data set is rodents. The note with it: compared with L-4F doses studied here (Fig. S4).
Data set [14] relates to TNF-α-stimulated whole human blood. The note with it: 40 μg/ml, human TNF-α 10 ng/ml, 6 h at 37 °C, n=4 (Fig. 2).
A further data set relates to primary human monocytes. The note with it: ref [28]; cited from earlier work.

Where a SMILES comes first, the peptide text is derived from it.

For Ac-DWFKAFYDKVAEKFKEAF-NH2 [4F], in [1] (ref [19]–[21]), the anti-inflammatory properties entry is “exerts strong anti-inflammatory properties”. Also, the “safety profile in patients” value in [2] was “acceptable safety profile”. Besides, the “disruption of rafts and responsiveness of macrophages to LPS” value in data set [3] is reported as “attenuating the responsiveness of macrophages to LPS”.

With `CC(=O)N[C@@H](CC(=O)O)C(=O)N[C@@H](Cc1c[nH]c2ccccc12)C(=O)N[C@@H](Cc1ccccc1)C(=O)N[C@@H](CCCCN)C(=O)N[C@@H](C)C(=O)N[C@@H](Cc1ccccc1)C(=O)N[C@@H](Cc1ccc(O)cc1)C(=O)N[C@@H](CC(=O)O)C(=O)N[C@@H](CCCCN)C(=O)N[C@H](C(=O)N[C@@H](C)C(=O)N[C@@H](CCC(=O)O)C(=O)N[C@@H](CCCCN)C(=O)N[C@@H](Cc1ccccc1)C(=O)N[C@@H](CCCCN)C(=O)N[C@@H](CCC(=O)O)C(=O)N[C@@H](C)C(=O)N[C@@H](Cc1ccccc1)C(N)=O)C(C)C` [L-4F] (Ac-DWFKAFYDKVAEKFKEAF-NH2), the “effect on LPS-induced TNF-α levels” value in data set [4] (LPS 1 μg/ml, 30 min, 1 h, 3 h (Fig. 5A)) is “inhibit this effect (P<0.05 vs. LPS, for 30 min and 1 h, Fig. 5A)”. Moreover, in data set [4] (LPS 1 μg/ml, 30 min, 1 h, 3 h (Fig. 5B)), the “effect on LPS-mediated MPO elevation” value is “only inhibitory effect of L-4F reaches statistical significance (P<0.05 vs. LPS, for 30 min and 3 h, Fig. 5B)”. Besides, the “effect on LPS-mediated IL-6 increase” value in data set [4] (LPS 1 μg/ml, 3 h, cell media, n=3, ELISA (Fig. 6)) is “significantly inhibits LPS-mediated IL-6 increase (P<0.05 vs. LPS)”. Also, in [4] (LPS-stimulated neutrophils), the “comparison with apoA-I, LPS-mediated increase in IL-6 levels” value is reported as “tended to be superior in inhibiting LPS-mediated increase in IL-6 levels”. In addition, the “inhibition of binding of LPS to leukocytes” value with leukocytes is “inhibit binding of LPS to leukocytes”. In data set [5] (ELISA, n=4 (Fig. 1)), the “effect on inflammatory response to LPS (TNF-α and IL-6)” value is listed as “inhibits inflammatory response to LPS in blood to an equal extent”. Moreover, in data set [5] (n=4/group, *P<0.05 vs. saline-treated LPS (Fig. 1A)), the “plasma level of TNF-α” value is reported as “reduces plasma levels of TNF-α”. For the same compound, the “plasma level of IL-6” value in data set [5] (n=4/group, *P<0.05 vs. saline-treated LPS (Fig. 1B)) was “reduces plasma levels of TNF-α (A) and IL-6”. For the same compound, the “dose with high efficiency in animal models of severe sepsis” value in data set [1] (L-4F, ref [22]–[24]) is given as 10 mg/kg. In addition, the “effect in cecal ligation and puncture model of polymicrobial sepsis” value in data set [1] (cecal ligation and puncture, ref [22]) is recorded as “has protective effects”. The “effect in animal models of acute inflammation” value in data set [1] (ref [22]–[25]) was “reduces inflammatory response and improves survival”. In [6], the “effect of agent alone on CD11b expression and lipid raft abundance” value was “Neither L-4F alone nor apoA-I alone affects CD11b expression and lipid raft abundance”; the “effect on LPS-increased CD11b expression” value is “inhibits this effect (P<0.05 vs. LPS, for L-4F at all time points and for apoA-I at 30 min, Fig. 3A, B)”; the “effect on LPS-increased lipid raft abundance” value was “inhibits this effect (P<0.05 vs. LPS, for L-4F at 1 and 3 h and for apoA-I at 1 h, Fig. 3C, D)”. In [7], the “competition with LBP for binding with LPS” value is reported as “compete with lipopolysaccharide-binding protein (LBP) for binding with LPS”. In addition, the “binding affinity for pro-inflammatory oxidized lipids” value in [8] is given as “binds pro-inflammatory oxidized lipids with higher affinity than human apoA-I”. Further, the “HDL-associated paraoxonase 1 activity” value in the data set on paraoxonase 1 is “increasing HDL-associated paraoxonase 1 activity”. Further, in [9], the “effect on IL-8-induced increase of CD11b expression” value is “only minimal effect” and the “effect on IL-8-induced increase of lipid rafts abundance” value is reported as “only minimal effect”. In addition, the effective concentration in data set [10] (concentration at which effective, L-4F) was 40 µg/mL. In data set [10], the “activation of neutrophils by septic patient serum” value is recorded as “inhibits activation of human neutrophils stimulated by septic patient serum”. Also, in [11] (5 or 50 % donor plasma, lucigenin 10 μM, 3 h at 37 °C, both P<0.05 vs. LPS (Fig. 9)), the “effect on LPS-mediated chemiluminescence (rate and peak)” value is recorded as “inhibits the rate as well as peak of LPS-mediated chemiluminescence”. For the same compound, in data set [11] (50 % plasma, 3 h, NS vs. apoA-I), the “inhibition of oxidative stress, L-4F vs. apoA-I” value is “the inhibitory effects of L-4F and apoA-I are similar”. For the same compound, the “interaction with LPS (co-localization of Bodipy-LPS and ^14C-L-4F in FPLC fractions)” value in [12] was “interaction of LPS and L-4F was strongly suggested”. Besides, in data set [13], the water solubility entry is “high water solubility”. Also, the tolerability in rodents result with rodents is given as “rodents were able to tolerate L-4F in much higher doses”. In [14], the “effect on TNF-α-mediated elevation of plasma IL-6” value is recorded as “does not reduce plasma levels of IL-6”. Besides, the “cholesterol efflux and lipid raft abundance” value in the data set with primary human monocytes was “stimulate cholesterol efflux and reduce lipid raft abundance”.

The record behind these values is paper PMC5822683 (Inflammation, 2014).
